The values that follow come from paper PMC9489722, “Identification and development of a subtype-selective allosteric AKT inhibitor suitable for clinical development” (Scientific Reports, 2022).

Each structure is given as a SMILES string.

The nature of data set [1]: In vitro microsomal stability, human. The conditions noted are these: pH 7.4; human liver microsomes; read-out: human LM CLint. In kind it is in vitro ADME. Here is the method:
(§1) Compounds (final concentration = 1 µM; final DMSO concentration = 0.1%) were incubated in 0.1 M phosphate buffer at pH 7.4 with liver microsomes (human, mouse, rat or dog; 0.5 mg of protein/mL) at 37 °C. Reactions were started by addition of NADPH in 0.1 M phosphate buffer pH 7.4 (final concentration 1 mM). Reactions were quenched by addition of ice-cold methanol and frozen. The supernatants were analysed by LC/MS/MS on a Waters Acquity I-Class coupled to a Waters Xevo TQD mass spectrometer. A Waters BEH C18 2.1 × 50 mm 1.7 µm column was used and mobile phases consisted of water and methanol containing 0.1% formic acid as modifier. Analysis was by multiple reaction monitoring and conditions were optimised for each test compound.

A short description of data set [2]: In vitro microsomal stability, rat. Format: in vitro ADME. The settings on record: pH 7.4; rat liver microsomes; read-out: rat LM CLint. Here is the method:
as §1

The subject of data set [3] is panel of over 450 kinases. The experiment in a line: SelectScreen kinase selectivity profiling, full panel. Format: biochemical. How it is done:
Off-target kinase activity was performed using the SelectScreen kinase profiling service against either mini 50 kinase or full 450 kinase panels using the Z’lyte and Adapta kinase activity platforms (performed by Thermofisher).

In data set [4] the test system is pGSK3β in PC3 prostate cancer cells. Briefly: pGSK3β ELISA in PC3 cells. In kind it is cell-based. The settings on record: Homo sapiens, PC-3; PC3 cells, 24 h. Here is the method:
Cells were then washed with PBS and lysed. The subsequent supernatant was assayed using a GSK3β (pS9) (Invitrogen, Life Technologies) ELISA. Phospho-AKT levels were detected using the phospho-AKT (S473) immunoassay (R&D Systems) as per manufacturer’s protocol. Percentage inhibition of phosphorylation status was calculated by comparing phospho-AKT levels to total AKT levels with each treatment and IC50 values derived using non-linear regression on GraphPad Prism.

The subject of the next data set is A549 xenografts. Briefly: Anti-tumour efficacy study in A549 lung cancer xenograft model. In kind it is in vivo, mouse. Here is the method:
For efficacy in A549 xenografts, 90 male BALB/c nude mice aged 6–8 weeks and weighing approximately 20–26 g were inoculated subcutaneously in the right flank with 1 × 10^7 A549 tumour cells (ATCC) in 0.1 mL of PBS with Matrigel (1:1) to aid tumour development. When the mean tumour size reached approximately 150 mm^3, 10 mice were randomised to each experimental group, using a randomised block approach. Groups sizes were devised based on past experience of the provider. Treatment started on Day 11 after tumour inoculation with mice receiving ALM301 (either 10, 30 or 100 mg/kg) or vehicle control. Tumour size was measured twice weekly in two dimensions using a caliper, and the volume expressed in mm^3 using the formula: V = 0.5 (a × b^2), where a and b are the long and short diameters of the tumour, respectively.

The next data set has as its system MCF-7 xenografts. Briefly: Efficacy study in MCF-7 breast cancer xenograft model. The settings on record: MCF-7 xenograft; for tumour regression: p.o. Format: in vivo. Here is the method: For efficacy in MCF-7 xenografts, 150 SCID female mice aged 6–8 weeks and weighing approximately 18–22 g were implanted with 1 × 10^7 MCF-7 tumour cells (ATCC) subcutaneously in the right flank. […] Once mean tumour size reached approximately 150 mm^3, mice were randomised to either control or treatment groups (n = 10/group) using a randomised block approach. Groups sizes were devised based on past experience of the provider. […] Tumour size was measured twice weekly in two dimensions using a caliper, and the volume expressed in mm^3 using the formula: V = 0.5 (a x b^2), where a and b are the long and short diameters of the tumour, respectively.

A further data set concerns ∆AKT1. Briefly: PH domain null AKT1 biochemical kinase assay (FP iMAP). How it is done:
Biochemical analysis was performed using kinases obtained from Millipore (AKT1, ∆AKT1, ∆AKT2, ∆AKT3) and Signal Chem (AKT2 and AKT3). The specific activity of AKT 1,2 and 3 was determined to be 114 nmol/min/mg, 44 nmol/min/mg and 200 nmol/min/mg respectively as per activity assay protocol. ALM301 was profiled using the Fluorescent Polarisation (FP) iMAP Screening Express kit (Molecular Devices) using the FAM-Crosstide substrate [5FAM-[…]-OH] (Molecular Devices) against the three isoforms of AKT and their PH domain null mutants. Compounds were dissolved in DMSO prior to screening at 14 point titration series in the range (50 µM–50 pM). Fluorescence polarisation was measured using a Biotek Synergy 4 Hybrid microplate reader. Percentage inhibition of kinase activity was calculated and IC50 values derived using non-linear regression on GraphPad Prism. Competition of ALM301 with ATP was determined using AKT1 under increasing ATP concentrations up to 1000 µM.

The test system of the next data set is MCF-7 cells. Briefly: In vitro Incucyte live cell imaging proliferation assay. Format: cell-based. The settings on record: MCF-7, 5 µM, 7d time course. How it is done: MCF-7 cells were obtained from American Type Culture Collection (ATCC). […] Cell confluency was measured over time using an Incucyte Zoom S3 using the basic analyser processing analysing tool. Percentage confluence values were calculated and IC50 values were derived as previously stated.

A short description of data set [5]: Pharmacokinetic study in Sprague–Dawley rats. The conditions noted are these: male SD rats. Format: in vivo, rat. How it is done:
Eight rats were purchased and 6 used on the PK study (3 per administration route). The remaining rats were purchased in case of mis-dosing events and were used to obtain blank biological matrix. Compounds were administered as single i.v. doses at 1 mg free base/kg or single oral doses at 5 mg free base/kg, with blood samples obtained from three rats per dose route, at 9 time-points out to 24 h post-dose. Both the intravenous and oral doses were prepared at a concentration of 1 mg free base/mL in a mixture of 5% DMSO/95% saline. Blood samples were centrifuged to give plasma. Plasma proteins were precipitated, and compounds extracted by addition of six volumes of acetonitrile containing warfarin as internal standard. Samples were centrifuged at 4000 rpm for 30 min and the supernatants were analysed on a Waters Xevo TQ mass spectrometer. Multiple Reaction Monitoring (MRM) methods were developed for each test compound using Waters IntelliStart software.
Quantification of test compounds was by extrapolation from calibration lines prepared in control rat plasma and analysed concurrently with experimental samples.
Non-compartmental analysis was performed using the software package PK Solutions 2.0 from Summit Research Services to produce the PK parameters. AUC values were calculated by the trapezoidal method.
Oral bioavailability was estimated by comparison of the drug concentration/time AUCs for individual animals after oral dosing with the mean AUC from i.v. doses.

The next data set concerns the target CYP3A4 (Homo sapiens, UniProt P08684). The experiment in a line: CYP3A4 inhibition. The settings on record: read-out: CYP IC50, 3A4. Format: in vitro ADME.

Chain of CYP3A4 (P08684 whole entry): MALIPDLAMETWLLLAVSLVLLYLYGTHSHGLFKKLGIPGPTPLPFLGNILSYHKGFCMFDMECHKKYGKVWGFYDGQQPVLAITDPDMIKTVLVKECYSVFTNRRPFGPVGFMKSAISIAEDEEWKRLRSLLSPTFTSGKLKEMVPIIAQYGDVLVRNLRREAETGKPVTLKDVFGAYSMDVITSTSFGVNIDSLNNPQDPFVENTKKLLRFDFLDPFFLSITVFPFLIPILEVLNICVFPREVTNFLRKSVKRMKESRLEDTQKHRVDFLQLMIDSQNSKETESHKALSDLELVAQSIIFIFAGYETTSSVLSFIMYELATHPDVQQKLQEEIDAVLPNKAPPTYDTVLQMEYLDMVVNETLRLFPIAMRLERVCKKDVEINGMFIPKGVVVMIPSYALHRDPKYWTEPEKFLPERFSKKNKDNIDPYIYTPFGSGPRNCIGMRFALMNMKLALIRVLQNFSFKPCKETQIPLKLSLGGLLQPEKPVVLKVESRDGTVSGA

For the compound `CCN1C(=O)COc2nc(-c3ccc([C@]4(N)C[C@@H](O)C4)cc3)c(-c3ccccc3)cc21` [ALM301, 6-(4-((1S,3S)-1-amino-3-hydroxycyclobutyl)phenyl)-1-ethyl-7-phenyl-1H-pyrido[2,3-b][1,4]oxazin-2(3H)-one], the microsomal CLint at 1 µM in data set [1] was found to be 3.7 µL/min/mg; in data set [2], 3 µL/min/mg. Moreover, the “inhibition versus the additional 21 PH domain containing kinases” value in [3] (21 PH domain containing kinases assayed) is recorded as “did not demonstrate any inhibition”. In addition, the “selectivity against a panel of over 450 kinases” value in [3] (fixed concentration of 10 µM) was “highly selective”. Moreover, the IC50 in data set [4] was 160 nM; on CYP3A4, greater than 25000 nM. The “tolerability / body weight” value is recorded as “Moderate bodyweight loss” in the data set on A549 xenografts (100 mg/kg dosing group, recovered after every other day dosing); “no body weight loss or adverse effects observed” in the data set with A549 xenografts (10 and 30 mg/kg dose groups). Besides, the “tumour growth inhibition (TGI)” value was 23% with A549 xenografts (p.o. 10 mg/kg q.d. × 28), 31% with A549 xenografts (p.o. 30 mg/kg q.d. × 28) and 41% in the data set with A549 xenografts (p.o. 100 mg/kg q.d × 3 then q.o.d. × 25). The results for the tumour regression in the data set on MCF-7 xenografts (ALM301 3 mg/kg q.d. in combination with tamoxifen 5 mg/kg q.d.) and in the data set with MCF-7 xenografts (ALM301 10 mg/kg q.d. in combination with tamoxifen 5 mg/kg q.d.) were 57% and 50%, respectively. In addition, the “tolerability / animal body weight” value in the data set with MCF-7 xenografts (monotherapy and in combination with tamoxifen, any dose levels) is listed as “no significant effects on animal body weight”. Besides, the “tumour growth inhibition, single agent” value with MCF-7 xenografts (p.o. 3 or 10 mg/kg once-a-day) is “minimal tumour growth inhibition”. For the same compound, the “inhibition of truncated AKT1 lacking PH domain” value in the data set on ∆AKT1 was “not inhibited”. In addition, the “cell proliferation by live cell imaging” value with MCF-7 cells was “completely abrogated cell proliferation”. Further, the clearance in data set [5] (Sprague-Dawley, rat, plasma, iv, 1 mg/kg i.v., read-out: Rat PK CL) came to 19 mL/min/kg. Moreover, in data set [5] (Sprague-Dawley, rat, plasma, iv, 1 mg/kg i.v., read-out: Rat PK Vd), the Vd turned out to be 13 L/kg. In [5] (1 mg/kg i.v. and 5 mg/kg p.o., AUC 0-∞), the “Rat PK F” value stood at 26%.
